Results as given in patent publication US6723716B1, “7-acylamino-3-heteroarylthio-3-cephem carboxylic acid antibiotics and prodrugs thereof” (Essential Therapeutics, Inc., priority 1999, dated 2004).
Values after ≈ are worked out from the molar mass of the structure shown.

Tests used:
E. coli ATCC25992 = test: Broth microdilution MIC (NCCLS); format: cell-based; settings: Escherichia coli
Procedure: (§1) Compounds were evaluated for antimicrobial activity against a panel of bacterial strains using a broth microdilution assay performed as recommended by the NCCLS (1). The minimum inhibitory concentration (MIC) was defined as the lowest concentration of drug which prevented the growth of the bacteria.
(§2) For this primary panel, the assay was performed in Mueller-Hinton Broth (MHB) with a final bacterial inoculum of 5×10^5 CFU/mL (from an early-log phase culture) and a final volume of 100 μL. Control drugs, including imipenem, vancomycin, Penicillin G, dicloxacillin (vs. MSSA ATCC29213 only), and new compounds were prepared at a concentration equivalent to 2-fold the desired final concentration. Dilution of compounds were prepared directly in the plates by serial 2-fold dilution using a multichannel pipette. Positive and negative growth control were included in each plate.
(§3) The bacterial inocula were prepared as follows. For each strain one isolated colony was used to inoculate a volume of 8 mL of Mueller-Hinton broth and these cultures were incubated overnight (20 h) at 35° C. in a shaking incubator. At the exception of Enterococcus strains, culture were then diluted 1:10 and allowed to grow for an additional one hour at 35° C. in a shaking incubator. The inocula were prepared by diluting the early log-phase (1 h) cultures 1:1000 with fresh Mueller-Hinton broth. E. faecium and E. faecalis were prepared by diluting overnight cultures 1:333 and 1:666, respectively, with fresh Mueller-Hinton broth. A volume of 50 μL of the inocula was added to each well. […] The exact inocula were determined by applying 10 μL of 10-fold serial dilution of the bacterial suspensions on TSA. After overnight incubation at 35° C., colony forming units were manually counted.
(§4) Microtiter plates were incubated during 24 h at 35° C. and were read using a microtiterplate reader (Molecular Devices) at 650 nm as well as by visual observation using a microtiterplate reading mirror.

E. faecalis ATCC 29212 = test: Broth microdilution MIC (NCCLS); format: cell-based; settings: Enterococcus faecalis, ATCC29212
Procedure: as §1, §2, §3, §4

E. faecalis VanB (Van^R) = test: Broth microdilution MIC (NCCLS); format: cell-based; settings: Enterococcus faecalis
Procedure: as §1, §2, §3, §4

E. faecium A491 (Amp^R) = test: Broth microdilution MIC (NCCLS); format: cell-based; settings: Enterococcus faecium
Procedure: as §1, §2, §3, §4

E. faecium ATCC 35667 = test: Broth microdilution MIC (NCCLS); format: cell-based; settings: Enterococcus faecium, ATCC35667
Procedure: as §1, §2, §3, §4

E. faecium VanA (Van^R) = test: Broth microdilution MIC (NCCLS); format: cell-based; settings: Enterococcus faecium
Procedure: as §1, §2, §3, §4

P. aeruginosa ATCC 27853 = test: Broth microdilution MIC (NCCLS); format: cell-based; settings: Pseudomonas aeruginosa, ATCC27853
Procedure: as §1, §2, §3, §4

[1] = tested on: S. aureus 76 (Meth^R)(lac^+); test: Broth microdilution MIC (NCCLS); format: cell-based; settings: Staphylococcus aureus
Procedure: as §1, §2, §3, §4

[2] = tested on: S. aureus ATCC 13709 (Meth^S); test: Broth microdilution MIC (NCCLS); format: cell-based; settings: Staphylococcus aureus, ATCC13709, S. aureus ATCC 13709 (Meth^S); read-out: MIC
Procedure: as §1, §2, §3, §4

S. aureus ATCC 29213 = test: Broth microdilution MIC (NCCLS); format: cell-based; settings: Staphylococcus aureus, ATCC29213; S. aureus ATCC 29213; Mueller-Hinton broth, 24 h at 35° C.; read-out: MIC
Procedure: as §1, §2, §3, §4

[3] = tested on: S. aureus ATCC 33593 (Meth^R); test: Broth microdilution MIC (NCCLS); format: cell-based; settings: Staphylococcus aureus, ATCC33593
Procedure: as §1, §2, §3, §4

[4] = tested on: S. aureus Col (Meth^R)(lac^−); test: Broth microdilution MIC (NCCLS); format: cell-based; settings: Staphylococcus aureus
Procedure: as §1, §2, §3, §4

[5] = tested on: S. aureus PC1 (Meth^S)(lac^+); test: Broth microdilution MIC (NCCLS); format: cell-based; settings: Staphylococcus aureus
Procedure: as §1, §2, §3, §4

[6] = tested on: S. aureus Spain #356 (Meth^R); test: Broth microdilution MIC (NCCLS); format: cell-based; settings: Staphylococcus aureus, 24 h
Procedure: as §1, §2, §3, §4

[7] = tested on: S. haemolyticus 05 (Meth^R); test: Broth microdilution MIC (NCCLS); format: cell-based; settings: Staphylococcus haemolyticus
Procedure: as §1, §2, §3, §4

S. aureus ATCC29213 = test: Human serum binding effect: MIC with and without human serum; format: cell-based, Staphylococcus aureus; settings: 1:1 human serum:MHB
Procedure: The approximate measurement of the degree of binding of the compound to human serum proteins can be achieved by determination of the effect of the addition of human serum to the medium in which the MIC values against a selected bacterial strain is determined. The ratio of the MIC value obtained in presence of added human serum to the MIC value determined without serum addition was used as a measure of serum binding and the results of such determination are presented below in Table 2.
In addition to the standard MIC determination described above, the staphylococcal strain ATCC29213 is also tested in a ratio 1:1, human serum:MHB to obtain a preliminary estimate of the bioactivity of test compounds in serum: The assay was performed in Human Serum and Mueller-Hinton Broth (HSMHB) with a final bacterial inoculum of 1×10^6 CFU/mL (from an early-log phase culture) and a final volume of 100 μL. Control drugs, including imipenem, vancomycin, dicloxacillin, and new compounds were prepared in double-concentrated Mueller-Hinton broth at a concentration equivalent to 4-fold the desired final concentration. Dilution of compounds were prepared directly in the plates by serial 2-fold dilution in double-concentrated Mueller-Hinton using a multichannel pipette. Positive and negative growth controls were included in each plate. […] The inoculum was prepared by diluting the early log-phase (1 h) culture 1:100 with fresh double-concentrated Mueller-Hinton broth. A volume of 25 μL of the inoculum was added to each well. […] The exact inoculum was determined by applying 10 μl of 10-fold serial dilution of the bacterial suspension on TSA. After overnight incubation at 35° C., colony forming units were manually counted.

| SMILES | MIC (E. coli ATCC25992) | MIC (E. faecalis ATCC 29212) | MIC (E. faecalis VanB (Van^R)) | MIC (E. faecium A491 (Amp^R)) | MIC (E. faecium ATCC 35667) | MIC (E. faecium VanA (Van^R)) | MIC (P. aeruginosa ATCC 27853) | MIC [1] | MIC [2] | MIC (S. aureus ATCC 29213) | MIC [3] | MIC [4] | MIC [5] | MIC [6] | MIC [7] | Human serum binding effect (ratio of MIC value determined with and without human serum added) (S. aureus ATCC29213) |
| --- | --- | --- | --- | --- | --- | --- | --- | --- | --- | --- | --- | --- | --- | --- | --- | --- |
| COc1nc(CSCCN)c(SC2=C(C(=O)O)N3C(=O)[C@@H](NC(=O)/C(=N\O)c4cccc(N)n4)[C@H]3SC2)s1 [Cmpd 5, (7R)-7-[(Z)-2-(2-aminopyrid-6-yl)-2-(hydroxyimino)acetamido]-3-[4-(2-aminoethylthiomethyl)-2-methoxy-1,3-thiazol-5-ylthio]-3-cephem-4-carboxylic acid] | 32 µg/mL (≈ 53.5 µM) | 0.5 µg/mL (≈ 0.837 µM) | 1 µg/mL (≈ 1.67 µM) | > 32 µg/mL | 4 µg/mL (≈ 6.69 µM) | 4 µg/mL (≈ 6.69 µM) | > 32 µg/mL | 4 µg/mL (≈ 6.69 µM) | 0.13 µg/mL (≈ 0.217 µM) | 0.25 µg/mL (≈ 0.418 µM) | 4 µg/mL (≈ 6.69 µM) | 4 µg/mL (≈ 6.69 µM) | 0.25 µg/mL (≈ 0.418 µM) | 4 µg/mL (≈ 6.69 µM) | 8 µg/mL (≈ 13.4 µM) | 4 |
| NCCSc1cncc(SC2=C(C(=O)O)N3C(=O)C(NC(=O)/C(=N\O)c4cccc(N)n4)C3SC2)n1 (stereo not shown) [Cmpd 6] | 16 µg/mL (≈ 29.2 µM) | 2 µg/mL (≈ 3.65 µM) | 4 µg/mL (≈ 7.29 µM) | > 32 µg/mL | 8 µg/mL (≈ 14.6 µM) | 8 µg/mL (≈ 14.6 µM) | > 32 µg/mL | 16 µg/mL (≈ 29.2 µM) | 0.25 µg/mL (≈ 0.456 µM) | 0.5 µg/mL (≈ 0.911 µM) | 8 µg/mL (≈ 14.6 µM) | 16 µg/mL (≈ 29.2 µM) | 0.5 µg/mL (≈ 0.911 µM) | 16 µg/mL (≈ 29.2 µM) | 32 µg/mL (≈ 58.3 µM) | 128 |
| NCCSc1nccc(SC2=C(C(=O)O)N3C(=O)[C@@H](NC(=O)/C(=N\O)c4cccc(N)n4)[C@H]3SC2)n1 [Cmpd 8, (7R)-7-[(Z)-2-(2-aminopyrid-6-yl)-2-(hydroxyimino)acetamido]-3-[2-(2-aminoethylthio)-pyrimidin-4-ylthio]-3-cephem-4-carboxylic acid] | 16 µg/mL (≈ 29.2 µM) | 8 µg/mL (≈ 14.6 µM) | 16 µg/mL (≈ 29.2 µM) | > 32 µg/mL | 16 µg/mL (≈ 29.2 µM) | 32 µg/mL (≈ 58.3 µM) | > 32 µg/mL | 16 µg/mL (≈ 29.2 µM) | 0.5 µg/mL (≈ 0.911 µM) | 1 µg/mL (≈ 1.82 µM) | 8 µg/mL (≈ 14.6 µM) | 16 µg/mL (≈ 29.2 µM) | 1 µg/mL (≈ 1.82 µM) | 16 µg/mL (≈ 29.2 µM) | 32 µg/mL (≈ 58.3 µM) | 128 |
| N=C(N)NCCSCc1nc(N)sc1SC1=C(C(=O)O)N2C(=O)[C@@H](NC(=O)/C(=N\O)c3nc(N)sc3Cl)[C@H]2SC1 [Cmpd 26, (7R)-7-[(Z)-2-(2-amino-5-chlorothiazol-4-yl)-2-(hydroxyimino)acetamido]-3-[4-(2-guanidinoethylthiomethyl)-2-amino-1,3-thiazol-5-ylthio]-3-cephem-4-carboxylic acid] | 4 µg/mL (≈ 6.01 µM) | 0.06 µg/mL (≈ 0.0902 µM) | 0.06 µg/mL (≈ 0.0902 µM) | 16 µg/mL (≈ 24.1 µM) | 0.5 µg/mL (≈ 0.752 µM) | 1 µg/mL (≈ 1.5 µM) | 4 µg/mL (≈ 6.01 µM) | 0.5 µg/mL (≈ 0.752 µM) | 0.06 µg/mL (≈ 0.0902 µM) | 0.06 µg/mL (≈ 0.0902 µM) | 0.5 µg/mL (≈ 0.752 µM) | 0.25 µg/mL (≈ 0.376 µM) | 0.06 µg/mL (≈ 0.0902 µM) | 0.5 µg/mL (≈ 0.752 µM) | 0.5 µg/mL (≈ 0.752 µM) | 2 |
